Literature values as cited in US20140235496A1, “STIMULUS-ELICITED GENOMIC PROFILE MARKERS OF A NEURODEGENERATIVE CONDITION” (Blanchette Rockefeller Neurosciences Institute, priority 2011, published 2014).

System: PKC
Conditions: shown to be effective; see US 2010/0022645

SMILES: CCC1CC1CC1CC1CC1CC1CC1CC1CC1CC1CC1CC1CCC(=O)O (stereo not shown) [DHA-CP6]
- effective concentration: 10 nM
